Tests used:
[1] = Protein binding test (equilibrium dialysis, unbound ratio fu in serum); type: in vitro ADME; settings: rat serum, equilibrium dialysis 24 hours, 37° C., 2 μg/mL
Procedure, shortened: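 Compound at 2 μg/mL in serum was dialysed against PBS for 24 hours at 37° C. Both sides were quantified by LC/MS/MS, and fu was taken as the PBS concentration divided by the serum concentration.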

[2] = Evaluation of total body clearance (CLtot), intravenous administration; type: in vivo, Sprague-Dawley (SD); settings: rat (SD), intravenous administration 0.5-10 mg/kg; CLtot = dose/AUC
Procedure, shortened: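 Compounds given as a single tail-vein injection at 0.5-10 mg/kg (n=2-3), dose varying by compound. Plasma sampled at scheduled times and measured by LC/MS/MS; CLtot derived as dose divided by AUC from pharmacokinetic analysis.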

[3] = target: HIV-1 PR (Human immunodeficiency virus type 1 group M subtype B, UniProt P04585); assay: HIV-protease inhibitory activity assay (FRET peptide substrate); type: biochemical; settings: Test Example 1
Procedure, shortened: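 Fluorescence recovery at ex 485/em 535 nm reports cleavage of a quenched FRET peptide (2 μmol/L final) by 0.83 ng enzyme over 60 minutes at room temperature. Buffer was NaAc pH 4.8 with NaCl, EDTA, DTT and Tween 20. IC50 values came from four-parameter logistic regression of % inhibition.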

Structure (SMILES)	rat_fu [1] [%]	rat_CLt [2] [mL/min/kg]	IC50 [3] [nM]
COc1ccc(S(=O)(=O)N(CC(C)C)CC(O)C(Cc2ccc(NCc3cccc(F)c3-c3sc4c(c3C(=O)O)CC(C)(C)CC4)cc2)NC(=O)OC2COC3(C)OCCC23)cc1 (stereo not drawn) [Compound I-277]	<0.1	0.512	1.94
CC(C)CN(CC(O)C(Cc1ccc(OCCNC(=O)c2cc(Cl)cc(Cl)c2O)cc1)NC(=O)OC1COC2(C)OCCC12)S(=O)(=O)c1ccc2c(c1)OCO2 (stereo not drawn) [Compound I-168]	<0.1	5.68	1.83
COc1ccc(S(=O)(=O)N(CC(C)C)CC(O)C(Cc2ccc(NCc3ncc(-c4sc5c(c4C(=O)O)CC(C)(C)CC5)s3)cc2)NC(=O)OC2COC3(C)OCCC23)cc1 (stereo not drawn) [Compound I-297]	<0.1	3.54	1.82
COc1ccc(S(=O)(=O)N(CC(C)C)CC(O)C(Cc2ccc(OCc3nccnc3-c3ccc(-c4sc5c(c4C(=O)O)CC(C)(C)CC5)cc3)cc2)NC(=O)OC2COC3(C)OCCC23)cc1 (stereo not drawn) [Compound I-195]	<0.1	6.74	2.15
COc1ccc(S(=O)(=O)N(CC(C)C)CC(O)C(Cc2ccc(OC3CN(c4cc(C(F)(F)F)ccc4-c4sc5c(c4C(=O)O)CC(C)(C)CC5)C3)cc2)NC(=O)OC2COC3(C)OCCC23)cc1 (stereo not drawn) [Compound I-354]	<0.1	0.0682	44.2
COc1ccc(S(=O)(=O)N(CC2CCCC2)CC(O)C(Cc2ccc(OCc3cc(C(F)(F)F)ccc3-n3nc4c(c3C(=O)O)CC(C)(C)CC4)cc2)NC(=O)OC2COC3(C)OCCC23)cc1 (stereo not drawn) [Compound I-365]	<0.1	0.119	3.2
CC(C)CN(C[C@@H](O)[C@H](Cc1ccc(CCc2sc3c(c2C(=O)O)CC(C)(C)CC3)cc1)NC(=O)O[C@H]1CO[C@@]2(C)OCC[C@@H]12)S(=O)(=O)c1ccc2nc(N)sc2c1 [Compound I-15]	<0.1	4.86	2.27
COc1ccc(S(=O)(=O)N(CC(C)C)CC(O)C(Cc2ccc(NCc3ccc4ccccc4c3-c3sc4c(c3C(=O)O)CC(C)(C)CC4)cc2)NC(=O)OC2COC3OCCC23)cc1 (stereo not drawn) [Compound I-851]	<0.1	0.298	2.57
COc1ccc(S(=O)(=O)N(CC(C)C)CC(O)C(Cc2ccc(N(C)C3CN(c4ccc(-c5sc6c(c5C(=O)O)CC(C)(C)CC6)cc4)C3)cc2)NC(=O)OC2COC3(C)OCCC23)cc1 (stereo not drawn) [Compound I-391]	<0.1	10.3	3.94
COc1ccc(S(=O)(=O)N(CC(C)C)CC(O)C(Cc2ccc(OCc3ccccc3-c3ccc4c(c3)C(=O)C(c3ccc(F)cc3)C4=O)cc2)NC(=O)OC2COC3OCCC23)cc1 (stereo not drawn) [Compound I-841]	<0.1	2.38	2.21
COC(=O)NC(C(=O)NC(Cc1ccc(-c2sc3c(c2C(=O)O)CC(C)(C)CC3)cc1)C(O)CC(Cc1ccccc1F)C(=O)NC1c2cc(F)cc(Cl)c2OCC1O)C(C)(C)C (stereo not drawn) [Compound I-903]	<0.1	0.0436	2.23
COc1ccc(S(=O)(=O)N(CC(C)C)CC(O)C(Cc2ccc(NCc3cc(C#N)ccc3-c3sc4c(c3C(=O)O)CC(C)(C)CC4)cc2)NC(=O)OC2COC3(C)OCCC23)cc1 (stereo not drawn) [Compound I-256]	<0.1	3.83	2.82

Source: patent US20170253607A1, “LONG-ACTING HIV PROTEASE INHIBITOR” (Shionogi & Co., Ltd., priority 2014, published 2017)
